The values below come from patent publication US11234437B2 (priority 2017, dated 2022).

Data set [1] has as its system Botryotinia fuckeliana (Botrytis cinerea). In words: Botryotinia fuckeliana (Botrytis cinerea) / liquid culture (gray mould). In kind it is cell-based. The following applies: compared to untreated control. As for the experimental part: Botryotinia fuckeliana (Botrytis cinerea)/Liquid Culture (Gray Mould)
Conidia of the fungus from cryogenic storage are directly mixed into nutrient broth (Vogels broth). After placing a (DMSO) solution of test compound into a microtiter plate (96-well format), the nutrient broth containing the fungal spores is added. The test plates are incubated at 24° C. and the inhibition of growth is determined photometrically 3-4 days after application.

Data set [2] relates to Glomerella lagenarium (Colletotrichum lagenarium). The experiment in a line: Glomerella lagenarium (Colletotrichum lagenarium) / liquid culture (anthracnose). In kind it is cell-based. Particulars: Colletotrichum orbiculare, compared to untreated control. As for the experimental part:
Conidia of the fungus from cryogenic storage are directly mixed into nutrient broth (PDB potato dextrose broth). After placing a (DMSO) solution of test compound into a microtiter plate (96-well format), the nutrient broth containing the fungal spores is added. The test plates are incubated at 24° C. and the inhibition of growth is measured photometrically 3-4 days after application.

Data set [3] deals with Fusarium culmorum. The experiment in a line: microbe, parasite or virus in culture. In kind it is cell-based. Particulars: read-out: control of Fusarium culmorum.
Data set [4] relates to Fusarium culmorum. The experiment in a line: whole plant or invertebrate. In kind it is in vivo. The following applies: in Triticum aestivum, read-out: control of Fusarium culmorum.
For data set [5], the system named is Gibberella zeae (Fusarium graminearum). The experiment in a line: whole plant or invertebrate. In kind it is in vivo. The following applies: in Triticum aestivum, read-out: control of Gibberella zeae.
Data set [6] deals with Monographella nivalis (Microdochium nivale). In words: Monographella nivalis (Microdochium nivale) / liquid culture (foot rot cereals). In kind it is cell-based. The following applies: compared to untreated control. The method, boiled down:
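Cryostored conidia mixed into potato dextrose broth and added to compound delivered as DMSO solution. Plates incubated at 24 °C; growth inhibition measured photometrically 4-5 days after application.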

Data set [7] deals with Magnaporthe grisea (Pyricularia oryzae). In words: microbe, parasite or virus in culture. In kind it is cell-based. Particulars: read-out: control of Magnaporthe grisea.
Another data set has as its system Sclerotinia sclerotiorum. In words: Sclerotinia sclerotiorum / liquid culture (cottony rot). In kind it is cell-based. The following applies: compared to untreated control. As for the experimental part: Sclerotinia sclerotiorum/Liquid Culture (Cottony Rot)
Mycelia fragments of a newly grown liquid culture of the fungus are directly mixed into nutrient broth (Vogels broth). After placing a (DMSO) solution of test compound into a microtiter plate (96-well format) the nutrient broth containing the fungal material is added. The test plates are incubated at 24° C. and the inhibition of growth is determined photometrically 3-4 days after application.

In the case of `C[C@](Cc1ccccc1)(CC(F)(F)F)NC(=O)c1cnc2ccccc2c1` [Compound F-34, N-[(1S)-1-benzyl-3,3,3-trifluoro-1-methyl-propyl]quinoline-3-carboxamide], the inhibition of growth at 200 ppm (in data set [1]; in data set [2]; in the data set on Fusarium culmorum [3]) was no less than 80% throughout. Besides, the pest or weed control at 200 ppm (in the data set on Fusarium culmorum [4]; in [5]) was no less than 80% in each case. For the same compound, the inhibition of growth at 20 ppm (in data set [6]; in [7]; in the data set on Sclerotinia sclerotiorum) was no less than 80% in each case.

Turning to `C=C(Cl)CC(C)(Cc1ccccc1)NC(=O)c1cnc2c(F)cccc2c1` (stereo not shown) [X.001], the melting point (commonly the temperature of the solid-liquid transition) lay in the range of 56 to 59 °C. In data set [1], this compound had an inhibition of growth at 200 ppm of no less than 80%. The compound further yielded an inhibition of growth at 200 ppm in data set [2] of no less than 80%. The inhibition of growth at 200 ppm in the data set on Fusarium culmorum [3] was no less than 80%. Besides, the pest or weed control at 200 ppm with Fusarium culmorum [4] is no less than 80%. Further, the pest or weed control at 200 ppm in data set [5] is no less than 80%. In [6], this compound yielded an inhibition of growth at 20 ppm of no less than 80%. Moreover, the inhibition of growth at 20 ppm in data set [7] is no less than 80%. The compound also gave an inhibition of growth at 20 ppm with Sclerotinia sclerotiorum of no less than 80%.

For the compound `C[C@](Cc1ccccc1)(CC1(F)CC1)NC(=O)c1cnc2c(F)cccc2c1` [Compound F-24, N-[(1S)-1-benzyl-2-(1-fluorocyclopropyl)-1-methyl-ethyl]-8-fluoro-quinoline-3-carboxamide], the inhibition of growth at 200 ppm (in data set [1]; in [2]; in the data set with Fusarium culmorum [3]) was no less than 80% each time. Further, the pest or weed control at 200 ppm (in the data set with Fusarium culmorum [4]; in [5]) was no less than 80% in each case. Also, the inhibition of growth at 20 ppm (in data set [6]; in data set [7]; with Sclerotinia sclerotiorum) was no less than 80% each time.

In the case of `C=C(Cl)C[C@](C)(Cc1ccccc1)NC(=O)c1cnc2c(F)cccc2c1` [Compound F-35], the inhibition of growth at 200 ppm (in [1]; in data set [2]; in the data set with Fusarium culmorum [3]) was no less than 80% each time. The pest or weed control at 200 ppm (with Fusarium culmorum [4]; in [5]) was no less than 80% each time. The inhibition of growth at 20 ppm (in [6]; in [7]; in the data set on Sclerotinia sclerotiorum) was no less than 80% throughout.

`C[C@](Cc1cccc(F)c1)(CC(F)(F)F)NC(=O)c1cnc2c(F)cccc2c1` [Compound F-28, 8-fluoro-N-[(1S)-3,3,3-trifluoro-1-[(3-fluorophenyl)methyl]-1-methyl-propyl]quinoline-3-carboxamide]: the inhibition of growth at 200 ppm (in data set [1]; in data set [2]; with Fusarium culmorum [3]) was no less than 80% throughout. The pest or weed control at 200 ppm (in the data set on Fusarium culmorum [4]; in data set [5]) was no less than 80% throughout. The inhibition of growth at 20 ppm (in [7]; in the data set on Sclerotinia sclerotiorum) was no less than 80% throughout.

The compound `CC(Cc1ccccc1)(CC(F)(F)F)NC(=O)c1cnc2ccccc2c1` (stereo not shown) [X.020, N-(1-benzyl-3,3,3-trifluoro-1-methyl-propyl)quinoline-3-carboxamide] yielded a melting point of 130 to 132 °C. The same compound had an inhibition of growth at 200 ppm in [1] of no less than 80%. In addition, in data set [2], the inhibition of growth at 200 ppm is no less than 80%. Further, the inhibition of growth at 200 ppm with Fusarium culmorum [3] was no less than 80%. For the same compound, the pest or weed control at 200 ppm in the data set on Fusarium culmorum [4] is no less than 80%. Besides, the pest or weed control at 200 ppm in data set [5] is no less than 80%. In [7], the inhibition of growth at 20 ppm was no less than 80%. For the same compound, the inhibition of growth at 20 ppm in the data set on Sclerotinia sclerotiorum was no less than 80%.

Take `CC(C)C[C@](C)(Cc1cccc(F)c1)NC(=O)c1cnc2c(F)cccc2c1` [Compound F-29, 8-fluoro-N-[(1R)-1-[(3-fluorophenyl)methyl]-1,3-dimethyl-butyl]quinoline-3-carboxamide]: the inhibition of growth at 200 ppm (in data set [1]; in data set [2]; with Fusarium culmorum [3]) was no less than 80% in each case. In addition, the pest or weed control at 200 ppm (with Fusarium culmorum [4]; in data set [5]) was no less than 80% throughout. For the same compound, the inhibition of growth at 20 ppm (in [7]; in the data set on Sclerotinia sclerotiorum) was no less than 80% in each case.
